Measured values published in ChEMBL document CHEMBL5523727, “Discovery of KT-413, a Targeted Protein Degrader of IRAK4 and IMiD Substrates Targeting MYD88 Mutant Diffuse Large B-Cell Lymphoma” (J Med Chem, 2024).

Legend:
Cereblon/Ikaros = Cereblon/Ikaros (Homo sapiens, UniProt Q96SW2+Q13422); assay: PROTAC activity at CRBN/Ikaros in human OCI-Ly10 cells assessed as induction of Ikaros degradation measured after 24 hrs by MSD assay; assay type: cell-based
[1] = molecular target: Protein cereblon/Interleukin-1 receptor-associated kinase 4 (Homo sapiens, UniProt Q96SW2+Q9NWZ3); assay: Binding affinity to CRBN/IRAK4 […] assessed as dissociation constant by DiscoverX Kd Elect assay
Sequence of Protein cereblon/Interleukin-1 receptor-associated kinase 4 (Homo sapiens, UniProt Q96SW2+Q9NWZ3) (Q9NWZ3 whole entry): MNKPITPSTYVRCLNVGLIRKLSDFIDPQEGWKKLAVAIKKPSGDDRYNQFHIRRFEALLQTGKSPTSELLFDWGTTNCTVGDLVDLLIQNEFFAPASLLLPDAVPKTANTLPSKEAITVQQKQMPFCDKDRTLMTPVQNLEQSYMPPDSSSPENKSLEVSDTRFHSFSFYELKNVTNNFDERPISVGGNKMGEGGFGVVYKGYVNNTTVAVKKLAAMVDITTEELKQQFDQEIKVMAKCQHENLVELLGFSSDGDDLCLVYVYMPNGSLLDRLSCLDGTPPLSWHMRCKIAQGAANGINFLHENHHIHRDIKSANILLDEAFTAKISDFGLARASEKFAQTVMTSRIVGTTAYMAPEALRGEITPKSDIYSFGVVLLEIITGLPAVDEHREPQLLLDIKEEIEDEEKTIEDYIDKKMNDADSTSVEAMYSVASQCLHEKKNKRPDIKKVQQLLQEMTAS
Sequence of Protein cereblon/Interleukin-1 receptor-associated kinase 4 (Homo sapiens, UniProt Q96SW2+Q9NWZ3) (Q96SW2 whole entry): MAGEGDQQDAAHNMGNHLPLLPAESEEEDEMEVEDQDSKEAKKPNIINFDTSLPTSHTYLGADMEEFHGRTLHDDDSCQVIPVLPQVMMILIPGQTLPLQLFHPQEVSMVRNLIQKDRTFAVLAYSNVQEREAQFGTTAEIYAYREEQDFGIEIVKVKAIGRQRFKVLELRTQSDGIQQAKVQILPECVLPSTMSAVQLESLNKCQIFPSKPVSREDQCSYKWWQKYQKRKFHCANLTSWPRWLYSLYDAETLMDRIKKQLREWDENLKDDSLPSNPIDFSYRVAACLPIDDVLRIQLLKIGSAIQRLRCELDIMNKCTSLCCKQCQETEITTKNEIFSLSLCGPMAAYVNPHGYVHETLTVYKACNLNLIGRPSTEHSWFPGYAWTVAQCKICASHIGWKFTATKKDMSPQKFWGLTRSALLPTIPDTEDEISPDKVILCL

[2] = Passive permeability of the compound in wild type MDCK cells across apical to basolateral side at 1 uM measured for 120 mins by LC-MS/MS analysis; assay type: ADME, cell-based, Canis lupus familiaris; details: dog, read-out: permeability
Protein cereblon = Protein cereblon (Homo sapiens, UniProt Q96SW2); assay: Binding affinity to CRBN (unknown origin) by HTRF assay
Sequence of Protein cereblon (Q96SW2 whole entry): as above

[3] = molecular target: T1, Protein cereblon/Interleukin-1 receptor-associated kinase 4 (Homo sapiens, UniProt Q9NWZ3+Q96SW2); assay: PROTAC activity at CRBN/IRAK4 in human OCI-Ly10 cells assessed as induction of IRAK4 degradation measured after 24 hrs by MSD assay; assay type: cell-based
Target sequence in this assay (Q9NWZ3 whole entry): as the sequence (Q9NWZ3 whole entry) above
Target sequence in this assay (Q96SW2 whole entry): as the sequence (Q96SW2 whole entry) above

OCI-Ly10 = assay: Antiproliferative activity against human OCI-Ly10 cells measured after 4 days by CellTiter-Glo Luminescent Cell Viability Assay; assay type: functional, cell-based; details: Homo sapiens, OCI-Ly10, 96 h
[4] = AUC in rat at 10 mg/kg, po by LC-MS/MS analysis; assay type: ADME, organism-based; details: in vivo
[5] = Clearance in rat at 2 mg/kg, iv by LC-MS/MS analysis; assay type: ADME, organism-based; details: in vivo
[6] = Metabolic stability in human liver microsomes assessed as intrinsic clearance at 1 uM measured upto 60 mins in presence of NADPH by UPLC/MS-MS analysis; assay type: ADME, Microsome; details: read-out: CLH
[7] = Half life in rat at 2 mg/kg, iv by LC-MS/MS analysis; assay type: ADME, organism-based; details: in vivo
[8] = Volume of distribution at steady state in rat at 2 mg/kg, iv by LC-MS/MS analysis; assay type: ADME, organism-based; details: in vivo, read-out: Vdss
[9] = Metabolic stability in rat liver microsomes assessed as intrinsic clearance at 1 uM measured upto 60 mins in presence of NADPH by UPLC/MS-MS analysis; assay type: ADME, Microsome; details: read-out: CLH
[10] = Oral bioavailability in rat at 10 mg/kg by LC-MS/MS analysis; assay type: ADME, organism-based; details: in vivo
[11] = molecular target: T1, Protein cereblon/Interleukin-1 receptor-associated kinase 4; assay: PROTAC activity at CRBN/IRAK4 in human OCI-Ly10 cells assessed as induction of IRAK4 degradation measured after 24 hrs by MSD assay relative to control; assay type: cell-based
Target sequence in this assay (Q96SW2 whole entry, looked up): as the sequence (Q96SW2 whole entry) above
Target sequence in this assay (Q9NWZ3 whole entry, looked up): as the sequence (Q9NWZ3 whole entry) above

Sequence of Cereblon/Ikaros (Q96SW2 whole entry): as the sequence (Q96SW2 whole entry) above
Sequence of Cereblon/Ikaros (Q13422 whole entry): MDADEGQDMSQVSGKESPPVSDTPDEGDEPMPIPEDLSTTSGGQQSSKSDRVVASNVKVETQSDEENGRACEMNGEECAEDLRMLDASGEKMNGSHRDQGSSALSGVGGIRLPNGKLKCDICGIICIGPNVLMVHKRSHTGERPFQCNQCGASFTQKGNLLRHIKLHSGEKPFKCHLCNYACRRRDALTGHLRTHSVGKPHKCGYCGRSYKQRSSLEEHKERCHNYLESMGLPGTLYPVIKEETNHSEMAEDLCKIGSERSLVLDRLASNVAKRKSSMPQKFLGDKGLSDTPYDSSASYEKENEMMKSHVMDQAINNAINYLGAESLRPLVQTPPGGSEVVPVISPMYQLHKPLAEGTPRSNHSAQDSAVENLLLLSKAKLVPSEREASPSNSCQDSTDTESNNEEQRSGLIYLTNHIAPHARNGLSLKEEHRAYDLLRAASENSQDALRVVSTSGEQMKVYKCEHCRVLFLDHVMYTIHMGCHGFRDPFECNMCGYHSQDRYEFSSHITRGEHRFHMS

Compound	DC50 (Cereblon/Ikaros) [nM]	Kd [1] [nM]	Papp A→B at 2 h, 1 µM [2] [×10⁻⁶ cm/s]	IC50 (Protein cereblon) [nM]	DC50 [3] [nM]	IC50 (OCI-Ly10) [nM]	AUC ([4]; read-out: AUC) [µM·h]	clearance [5] [mL/min/kg]	microsomal CLint at 1 µM [6] [µL/min/mg]	half-life [7] [min]	Vd [8] [L/kg]	microsomal CLint at 1 µM [9] [µL/min/mg]	bioavailability [10] [%]	Emax [11] [%]	AUC ([4]; po, 10 mg/kg) [µM·h]	F ([10]; po, 10 mg/kg) [%]
CC(C)(O)c1cc2nn(CCCCCNCCCNc3cccc4c3C(=O)N(C3CCC(=O)NC3=O)C4=O)cc2cc1NC(=O)c1cccc(C(F)(F)F)n1 (stereo not given)	17	2.2	0.42	79	128	125										
COc1cc2nc([C@H]3CC[C@H](CN4CC5(CC(CCNc6cccc7c6C(=O)N(C6CCC(=O)NC6=O)C7=O)C5)C4)CC3)cn2cc1NC(=O)c1cccc(C(F)(F)F)n1 (stereo not given in full)	26		0.64		38	154	0.01	40	< 1.8	900	43	< 1.8	< 1			
CN(C[C@H]1CC[C@H](n2cc3cc(NC(=O)c4cccc(C(F)(F)F)n4)c(C(C)(C)O)cc3n2)CC1)[C@H]1CCC2(CC1)C[C@H](Nc1cccc3c1C(=O)N(C1CCC(=O)NC1=O)C3=O)C2 (stereo not given in full)														86		
CN(CCCO[C@H]1C[C@H](Nc2cccc3c2C(=O)N(C2CCC(=O)NC2=O)C3=O)C1)C[C@H]1CC[C@H](n2cc3cc(NC(=O)c4cccc(C(F)(F)F)n4)c(C(C)(C)O)cc3n2)CC1 (stereo not given in full)	5	0.63	4.9	21	4	14	0.76	36	68	228	9.5	26	15			
CC(C)(O)c1cc2nn(CCCCCCCCCNc3cccc4c3C(=O)N(C3CCC(=O)NC3=O)C4=O)cc2cc1NC(=O)c1cccc(C(F)(F)F)n1 (stereo not given)	55	320		> 1100	3300	588										
COc1cc2nn([C@H]3CC[C@H](CN(C)CCCO[C@H]4C[C@H](Nc5cccc6c5C(=O)N(C5CCC(=O)NC5=O)C6=O)C4)CC3)cc2cc1NC(=O)c1cccc(C(F)(F)F)n1 (stereo not given in full)	28		2.4	23	29	360			19			10				
CC(C)(O)c1cc2nn(-c3ccc(CO)cc3)cc2cc1NC(=O)c1cccc(C(F)(F)F)n1		3.5														
CC(C)(O)c1cc2nn([C@H]3CC[C@H](CO)CC3)cc2cc1NC(=O)c1cccc(C(F)(F)F)n1		0.37														
COc1cc2nn([C@H]3CC[C@H](CN4CC5(CC(CCNc6cccc7c6C(=O)N(C6CCC(=O)NC6=O)C7=O)C5)C4)CC3)cc2cc1NC(=O)c1cccc(C(F)(F)F)n1 (stereo not given in full)	9		1	27	8	48			0.79	1020	29	1.6			0.13	4.2
CN(CCCNc1cccc2c1C(=O)N(C1CCC(=O)NC1=O)C2=O)C[C@H]1CC[C@H](n2cc3cc(NC(=O)c4cccc(C(F)(F)F)n4)c(C(C)(C)O)cc3n2)CC1 (stereo not given in full)	10	0.38	0.66	62	36	120			140			138				
CN(CCCOCCCNc1cccc2c1C(=O)N(C1CCC(=O)NC1=O)C2=O)C[C@H]1CC[C@H](n2cc3cc(NC(=O)c4cccc(C(F)(F)F)n4)c(C(C)(C)O)cc3n2)CC1 (stereo not given in full)	21	0.66	7.5	32	12	270			60			53				
CN(CCCO[C@H]1C[C@@H](Nc2cccc3c2C(=O)N(C2CCC(=O)NC2=O)C3=O)C1)C[C@H]1CC[C@H](n2cc3cc(NC(=O)c4cccc(C(F)(F)F)n4)c(C(C)(C)O)cc3n2)CC1 (stereo not given in full)	10	0.34	2.8	75	43	166			26			16				
